Experiments:
[1] = test system: MCF-7/adr adriamycin-resistant breast cancer cell line; experiment: Cell proliferation (CellTiter 96 AQueous MTS/PMS), MCF-7/adr; type: cell-based; details: Homo sapiens, NCI/ADR-RES; MCF-7/adr; 72 hours of incubation; concentration that induces the death of 50% of the cells; read-out: CI50 for various cell lines (nM) MCF-7/adr
Experimental: (§1) The effects of the compounds of the invention on the proliferation of cancer cells were studied on various human cancer cell lines of various tissue origins (MCF-7: breast cancer, MCF-7/adr adriamycin-resistant breast cancer, ARH-77: myeloma, ARH-77/Dox: doxorubicin (other name for adriamycin)-resistant myeloma, HL-60: acute promyelocytic leukaemia, HL-60/R10: doxorubicin-resistant acute promyelocytic leukaemia). The cancer cells used for this study were incubated at 37° C. in the presence of one of the compounds of the invention added to the culture medium at various concentrations.
(§2) The cancer cell lines originate from the ATCC (American Type Culture Collection) in the case of MCF-7, ARH-77 and HL-60, from Pharmacell (Paris, France) for HL-60/R10, from Oncodesign (Dijon, France) for ARH-77/Dox and from the Pitié Salpetrière Hospital for MCF-7/adr. They were cultivated in a RPMI 1640 medium containing 2 mM L-glutamine and supplemented with 10% foetal calf serum. All the cell lines were maintained in culture at 37° C. in a moist atmosphere containing 5% CO2. Cell proliferation was evaluated using the “CellTiter 96® AQueous” reagent (Promega, Wis., USA) while adhering to the manufacturer's instructions. The cells were seeded in 96-well culture plates in a proportion of from 5,000 to 10,000 cells per well in 200 μl of culture medium. After 24 hours of preincubation at 37° C., the compounds of the invention dissolved in dimethyl sulphoxide (DMSO) were added individually to each of the wells in a proportion of 2 μl per well. After 72 hours of incubation at 37° C. in a moist atmosphere containing 5% CO2, 40 μL of a MTS/PMS ([3-(4,5-dimethylthiazol-2-yl)-5-(3-carboxymethoxyphenyl)-2-(4-sulphophenyl)-2H-tetrazolium phenazine methosulphate) solution were added to each well.

[2] = test system: MCF-7 breast cancer cell line; experiment: Cell proliferation (CellTiter 96 AQueous MTS/PMS), MCF-7; type: cell-based; details: Homo sapiens, MCF7; MCF-7; 72 hours of incubation; concentration that induces the death of 50% of the cells; read-out: CI50 for various cell lines (nM) MCF-7
Experimental: as §1, §2

C#CC(=O)N(CC(C)C)C(C(=O)NC1CCCCC1)c1cccs1 (centres unmarked) [Compound 12, Propynoic Acid (cyclohexylcarbamoylthiophen-2-yl-methyl)isobutylamide] was tested, and the IC50 [1] was 30 nM.

In the case of C#CC(=O)N(c1ccc(-c2csnn2)cc1)C(C(=O)NC1CCCCC1)c1cccs1 (centres unmarked) [Compound 28, Propynoic Acid (cyclohexylcarbamoylthiophen-2-yl-methyl)-(4-[1,2,3]thiadiazol-4-yl-phenyl)amide], the IC50 [1] is reported as 2.2 nM and the IC50 [2] is reported as 70 nM.

With C#CC(=O)N(c1ccc(N2CCOCC2)cc1)C(C(=O)NC1CCCCC1)c1cccs1 (centres unmarked) [Compound 48, Propynoic Acid (cyclohexylcarbamoylthiophen-2-yl-methyl)-(4-morpholin-4-yl-phenyl)amide] the IC50 [1] was 1 nM.

With C#CC(=O)N(c1cccc(C(F)(F)F)c1)C(C(=O)NC1CCCCC1)c1ccc(N2CCCC2)cc1 (centres unmarked) [Compound 101, Propynoic Acid [cyclohexylcarbamoyl-(4-pyrrolidin-1-yl-phenyl)methyl]-(3-trifluoromethylphenyl)amide] the IC50 [1] was 1.1 nM and the IC50 [2] was 416 nM.

With C#CC(=O)N(c1ccccc1C)C(C(=O)NC1CCCCC1)c1cccs1 (centres unmarked) [Compound 60, Propynoic Acid (cyclohexylcarbamoylthiophen-2-yl-methyl)-o-tolylamide] the IC50 [1] was 3.5 nM and the IC50 [2] was 357 nM.

In the case of C#CC(=O)N(c1cccc(C(F)(F)F)c1)C(C(=O)NC1CCCCC1)c1ccc(F)cc1 (centres unmarked) [Compound 74, Propynoic Acid [cyclohexylcarbamoyl-(4-fluorophenyl)methyl]-(3-trifluoromethylphenyl)amide], the IC50 [1] is reported as 2.9 nM and the IC50 [2] is reported as 506 nM.

For CCN(CC)c1ccc(N(C(=O)CCl)C(C(=O)NC2CCCCC2)c2cccs2)cc1 (centres unmarked) [Compound 127, 2-[(2-Chloroacetyl)-(4-diethylaminophenyl)amino]-N-cyclohexyl-2-thiophen-2-yl-acetamide], the IC50 [1] was 7.5 nM and the IC50 [2] was 77 nM.

Compound O=C(C(c1cccs1)N(C(=O)CCl)c1cccc(C(F)(F)F)c1)N1CCN(C2CCCCC2)CC1 (centres unmarked) [Compound 197] has an IC50 [1] of 37 nM and an IC50 [2] of 1380 nM.

C#CC(=O)N(c1cccc(C(F)(F)F)c1)C(C(=O)NC1CCCCC1)c1ccc(Cl)cc1Cl (centres unmarked) [Compound 86, Propynoic Acid [cyclohexylcarbamoyl-(2,4-dichlorophenyl)methyl]-(3-trifluoromethylphenyl)amide] showed an IC50 [1] of 0.8 nM and an IC50 [2] of 216 nM.

C#CC(=O)N(c1cccc(C(F)(F)F)c1)C(C(=O)NC1CCCCC1)c1cccc(C#N)c1 (centres unmarked) [Compound 95, Propynoic Acid [(3-cyanophenyl)-cyclohexylcarbamoylmethyl]-(3-trifluoromethylphenyl)amide] showed an IC50 [1] of 1.4 nM and an IC50 [2] of 243 nM.

For C#CC(=O)N(c1cccc(C(F)(F)F)c1)C(C(=O)NC1CCCCC1)c1ccc(C(C)C)cc1 (centres unmarked) [Compound 89, Propynoic Acid [cyclo hexylcarbamoyl-(4-isopropylphenyl)methyl]-(3-trifluoromethylphenyl)amide], the IC50 [1] was 2.2 nM and the IC50 [2] was 825 nM.

C#CC(=O)N(c1ccccc1Cl)C(C(=O)NC1CCCCC1)c1cccs1 (centres unmarked) [Compound 33, Propynoic Acid (2-chlorophenyl)(cyclohexylcarbamoylthiophen-2-yl-methyl)amide] gave an IC50 [1] of 2.7 nM and an IC50 [2] of 736 nM.

Compound C#CC(=O)N(c1ccc(C(C)C)cc1)C(C(=O)NC1CCCCC1)c1cccs1 (centres unmarked) [Compound 57, Propynoic Acid (cyclohexylcarbamoylthiophen-2-yl-methyl)-(4-isopropylphenyl)amide] has an IC50 [1] of 8.1 nM and an IC50 [2] of 599 nM.

With O=C(OCc1ccccc1)N1CCN(C(=O)C(c2cccs2)N(C(=O)CCl)c2cccc(C(F)(F)F)c2)CC1 (centres unmarked) [Compound 198, 4-{2-[(2-chloro-acetyl)-(3-trifluoromethyl-phenyl)-amino]-2-thiophen-2-yl-acetyl}-piperazine-1-carboxylic acid benzyl ester] the IC50 [1] was 55 nM and the IC50 [2] was 1080 nM.

Compound C#CC(=O)N(c1cccc(C(F)(F)F)c1)C(C(=O)NC1CCCCC1)c1ccc(C)s1 (centres unmarked) [Compound 19, Propynoic Acid [cyclohexylcarbamoyl-(5-methylthiophen-2-yl)-methyl]-(3-trifluoromethylphenyl)amide] has an IC50 [1] of 1.4 nM and an IC50 [2] of 340 nM.

Work on C#CC(=O)N(c1cccc2ccccc12)C(C(=O)NC1CCCCC1)c1ccccc1 (centres unmarked) [Compound 176] yielded an IC50 [1] of 1.9 nM.

With CN1CCN(CCCOc2ccc(C(C(=O)NC3CCCCC3)N(C(=O)CCl)c3cccc(C(C)(C)C)c3)cc2)CC1 (centres unmarked) [Compound 189, 2-[(3-tert-Butyl-phenyl)-(2-chloro-acetyl)-amino]-N-cyclohexyl-2-[4-[3-(4-methyl-piperazin-1-yl)-propoxy]-phenyl]-acetamide] the IC50 [1] was 72 nM and the IC50 [2] was 360 nM.

Work on O=C(NC1CCCCC1)C(c1cccs1)N(C(=O)CCl)c1ccc2c(c1)OCO2 (centres unmarked) [Compound 135, 2-[1,3-Benzodioxol-5-yl-(2-chloroacetyl)amino]-N-cyclo hexyl-2-thiophen-2-yl-acetamide] yielded an IC50 [1] of 19 nM and an IC50 [2] of 285 nM.

With O=C(NC1CCCCC1)C(c1cccs1)N(C(=O)CBr)c1cccc(C(F)(F)F)c1 (centres unmarked) [Compound 107, 2-[(2-Bromoacetyl)-(3-trifluoromethylphenyl)amino]-N-cyclohexyl-2-thiophen-2-yl-acetamide] the IC50 [1] was 0.5 nM and the IC50 [2] was 267 nM.

For C#CC(=O)N(c1ccc(N(CC)CC)cc1)C(C(=O)NC1CCCCC1)c1cccs1 (centres unmarked) [Compound 32, Propynoic Acid (cyclohexylcarbamoylthiophen-2-yl-methyl)-(4-diethylaminophenyl)amide], the IC50 [1] was 2.9 nM and the IC50 [2] was 1260 nM.

N#Cc1ccc(N(C(=O)CCl)C(C(=O)NC2CCCCC2)c2cccs2)cc1 (centres unmarked) [Compound 122, 2-[(2-Chloroacetyl)-(4-cyanophenyl)amino]-N-cyclohexyl-2-thiophen-2-yl-acetamide] showed an IC50 [1] of 4 nM and an IC50 [2] of 300 nM.

CN(C)c1ccc(C(C(=O)NC2CCCCC2)N(C(=O)CCl)c2cccc(C(F)(F)F)c2)cc1 (centres unmarked) [Compound 147] gave an IC50 [1] of 1.1 nM and an IC50 [2] of 92 nM.

C#CC(=O)N(c1cccc(C(F)(F)F)c1)C(C(=O)NC1CCCCC1)c1cccc(C)c1 (centres unmarked) [Compound 94, Propynoic Acid (cyclohexylcarbamoyl-m-tolylmethyl)-(3-trifluoromethylphenyl)amide] gave an IC50 [1] of 2 nM and an IC50 [2] of 599 nM.

In the case of O=C(OCc1ccccc1)N1CCN(C(=O)C(c2cccs2)N(C(=O)CCl)c2ccc(Oc3ccccc3)cc2)CC1 (centres unmarked) [Compound 206], the IC50 [1] is reported as 38 nM and the IC50 [2] is reported as 2500 nM.

C#CC(=O)N(c1cccc(C(F)(F)F)c1)C(C(=O)NC1CCCCC1)c1ccc(SC)cc1 (centres unmarked) [Compound 88, Propynoic Acid [cyclohexylcarbamoyl-(4-methylsulphanylphenyl)methyl]-(3-trifluoromethylphenyl)amide] gave an IC50 [1] of 1.4 nM and an IC50 [2] of 334 nM.

With C#CC(=O)N(c1cccc(C(F)(F)F)c1)C(C(=O)NC1CCCCC1)c1cccc(Oc2ccccc2)c1 (centres unmarked) [Compound 90, Propynoic Acid [cyclohexylcarbamoyl-(3-phenoxyphenyl)methyl]-(3-trifluoromethylphenyl)amide] the IC50 [1] was 2.2 nM and the IC50 [2] was 820 nM.

Compound C#CC(=O)N(C(C(=O)NCc1ccccc1)c1cccs1)[C@H](C)c1ccccc1 (stereo partly drawn) [Compound 9, Propynoic Acid (benzylcarbamoylthiophen-2-yl-methyl)-((R)-1-phenylethyl)amide] has an IC50 [1] of 30 nM.

C#CC(=O)N(CC1CC1)C(C(=O)NCc1ccccc1)c1cccs1 (centres unmarked) [Compound 18, Propynoic Acid (benzylcarbamoylthiophen-2-yl-methyl)cyclopropylmethylamide] showed an IC50 [1] of 30 nM.

C#CC(=O)N(CC(C)C)C(C(=O)NCc1ccccc1)c1cccs1 (centres unmarked) [Compound 16, Propynoic Acid (benzylcarbamoylthiophen-2-yl-methyl)isobutylamide] was tested, and the IC50 [1] was 1 nM.

C#CC(=O)N(c1cccc(C(F)(F)F)c1)C(C(=O)NC1CCCCC1)c1ccccc1 (centres unmarked) [Compound 66, Propynoic Acid (cyclohexylcarbamoyl phenylmethyl)-(3-trifluoromethylphenyl)amide] gave an IC50 [1] of 1 nM.

C#CC(=O)N(C(C(=O)NCc1ccccc1)c1cccs1)[C@@H](C)c1ccccc1 (stereo partly drawn) [Compound 8, Propynoic Acid (benzylcarbamoylthiophen-2-yl-methyl)-((S)-1-phenylethyl)amide] was tested, and the IC50 [1] was 30 nM.

Work on C#CC(=O)N(Cc1ccc2c(c1)OCO2)C(C(=O)NCc1ccccc1)c1ccccc1F (centres unmarked) [Compound 181] yielded an IC50 [1] of 0.2 nM.

With C#CC(=O)N(c1cccc(C(F)(F)F)c1)C(C(=O)NC1CCCCC1)c1ccc(N(C)C)cc1 (centres unmarked) [Compound 76, Propynoic Acid [cyclohexylcarbamoyl-(4-dimethylaminophenyl)methyl]-(3-trifluoromethylphenyl)amide] the IC50 [1] was 1.5 nM.

Source: US8519188B2, “Compounds which can be used for the treatment of cancers” (Marc-Henry Pitty, priority 2008, dated 2013)
